Source: PubChem BioAssay AID246 (DTP/NCI, 2004)
Several values for one entry are separate records, joined by “and”; a condition that tells them apart may be missing. Equal entries are not always repeated. Toxic doses and inconclusive results are not listed.

Tested on: BDF1 mice, P1081 chloroleukemia ip, survival T/C
Test: NCI In Vivo Anticancer Drug Screen. Data for tumor model P1081 Chloroleukemia (intraperitoneal) in B6D2F1 (BDF1) mice
Details: endpoint: mean survival time, higher = longer survival
Description: The antitumor activity of compounds was measured in mice bearing transplantable tumors. Survival or tumor size were measured and the results are expressed as the measurement made in the treated group (T) divided by the measurement made in the vehicle treated control group (C). The tumor model used in this assay is P1081 Chloroleukemia (intraperitoneal) in B6D2F1 (BDF1) mice

[1] = dose: 3.1 mg/kg/injection, schedule: Q01DX Z (ip), vehicle: carboxymethylcellulose (CMC)
[2] = dose: 6.25 mg/kg/injection, schedule: Q01DX Z (ip), vehicle: carboxymethylcellulose (CMC)
[3] = dose: 10.0 mg/kg/injection, schedule: Q01DX010 (ip), vehicle: saline
[4] = dose: 12.5 mg/kg/injection, schedule: Q01DX Z (ip), vehicle: carboxymethylcellulose (CMC)
[5] = dose: 20.0 mg/kg/injection, schedule: Q01DX010 (ip), vehicle: saline
[6] = dose: 25.0 mg/kg/injection, schedule: Q01DX Z (ip), vehicle: carboxymethylcellulose (CMC)
[7] = dose: 100.0 mg/kg/injection, schedule: Q01DX Z (ip), vehicle: carboxymethylcellulose (CMC)
[8] = dose: 62.5 mg/kg/injection, schedule: Q01DX010 (ip), vehicle: saline
[9] = dose: 125.0 mg/kg/injection, schedule: Q01DX010 (ip), vehicle: saline
[10] = dose: 125.0 mg/kg/injection, schedule: Q01DX Z (ip), vehicle: carboxymethylcellulose (CMC)
[11] = dose: 250.0 mg/kg/injection, schedule: Q01DX010 (ip), vehicle: saline
[12] = dose: 250.0 mg/kg/injection, schedule: Q01DX Z (ip), vehicle: carboxymethylcellulose (CMC)
[13] = dose: 500.0 mg/kg/injection, schedule: Q01DX010 (ip), vehicle: saline
[14] = dose: 100.0 mg/kg/injection, schedule: Q01DX010 (ip), vehicle: saline
[15] = dose: 25.0 mg/kg/injection, schedule: Q01DX010 (ip), vehicle: saline
[16] = dose: 50.0 mg/kg/injection, schedule: Q01DX010 (ip), vehicle: saline

Cn1c(N)nc2nc[nH]c2c1=S
T/C (dose: 1.6 mg/kg/injection, schedule: Q01DX Z (ip), vehicle: carboxymethylcellulose (CMC)): 92 % of control | T/C [1]: 95 % of control | T/C [2]: 95 % of control and 98 % of control | T/C [3]: 120 % of control and 100 % of control | T/C [4]: 96 % of control and 102 % of control | T/C [5]: 105 % of control | T/C [6]: 96 % of control and 100 % of control and 105 % of control | T/C (dose: 50.0 mg/kg/injection, schedule: Q01DX Z (ip), vehicle: carboxymethylcellulose (CMC)): 98 % of control and 104 % of control | T/C [7]: 98 % of control and 102 % of control

S=c1nc[nH]c2nc[nH]c12
T/C (dose: 1.56 mg/kg/injection, schedule: Q01DX Z (ip), vehicle: other): 108 % of control | T/C (dose: 3.12 mg/kg/injection, schedule: Q01DX Z (ip), vehicle: other): 120 % of control | T/C (dose: 5.0 mg/kg/injection, schedule: Q01DX010 (ip), vehicle: alkali diluted with saline): 110 % of control and 97 % of control | T/C (dose: 10.0 mg/kg/injection, schedule: Q01DX010 (ip), vehicle: alkali diluted with saline): 105 % of control and 92 % of control | T/C (dose: 20.0 mg/kg/injection, schedule: Q01DX010 (ip), vehicle: alkali diluted with saline): 106 % of control (2×) and 112 % of control | T/C (dose: 40.0 mg/kg/injection, schedule: Q01DX010 (ip), vehicle: alkali diluted with saline): 118 % of control and 90 % of control and 103 % of control | T/C (dose: 80.0 mg/kg/injection, schedule: Q01DX010 (ip), vehicle: alkali diluted with saline): 108 % of control and 116 % of control | T/C (dose: 200.0 mg/kg/injection, schedule: Q01DX Z (ip), vehicle: other): 91 % of control and 100 % of control

CN(C)[C@@H]1C(=O)C(C(N)=O)=C(O)[C@@]2(O)C(=O)C3=C(O)c4c(O)cccc4C[C@H]3C[C@@H]12
T/C (dose: 7.5 mg/kg/injection, schedule: Q01DX010 (ip), vehicle: saline): 100 % of control | T/C (dose: 15.0 mg/kg/injection, schedule: Q01DX010 (ip), vehicle: saline): 90 % of control and 100 % of control | T/C (dose: 30.0 mg/kg/injection, schedule: Q01DX010 (ip), vehicle: saline): 100 % of control and 105 % of control | T/C (dose: 60.0 mg/kg/injection, schedule: Q01DX010 (ip), vehicle: saline): 111 % of control

C[N+](C)(C)c1ncnc2nc[nH]c12
T/C [1]: 94 % of control | T/C [2]: 97 % of control | T/C [4]: 100 % of control | T/C [7]: 195 % of control

O=c1cn[nH]c(=O)[nH]1
T/C (dose: 4.0 mg/kg/injection, schedule: Q01DX Z (ip), vehicle: carboxymethylcellulose (CMC)): 102 % of control | T/C (dose: 8.0 mg/kg/injection, schedule: Q01DX Z (ip), vehicle: carboxymethylcellulose (CMC)): 93 % of control | T/C [8]: 95 % of control | T/C [9]: 95 % of control | T/C [10]: 123 % of control and 94 % of control | T/C [11]: 90 % of control and 95 % of control | T/C [12]: 117 % of control | T/C [13]: 110 % of control and 100 % of control | T/C (dose: 500.0 mg/kg/injection, schedule: Q01DX Z (ip), vehicle: carboxymethylcellulose (CMC)): 117 % of control | T/C (dose: 1000.0 mg/kg/injection, schedule: Q01DX Z (ip), vehicle: carboxymethylcellulose (CMC)): 97 % of control

CSc1ncnc2nc[nH]c12
T/C [2]: 100 % of control | T/C [4]: 100 % of control | T/C [6]: 93 % of control | T/C [14]: 115 % of control | T/C (dose: 200.0 mg/kg/injection, schedule: Q01DX010 (ip), vehicle: saline): 120 % of control | T/C (dose: 200.0 mg/kg/injection, schedule: Q01DX Z (ip), vehicle: carboxymethylcellulose (CMC)): 114 % of control

CCOC(N)=O
T/C [9]: 110 % of control and 100 % of control | T/C (dose: 125.0 mg/kg/injection, schedule: Q01DX Z (ip), vehicle: saline): 95 % of control and 102 % of control | T/C [11]: 90 % of control and 100 % of control | T/C (dose: 250.0 mg/kg/injection, schedule: Q01DX Z (ip), vehicle: saline): 100 % of control and 101 % of control | T/C [13]: 90 % of control and 100 % of control | T/C (dose: 500.0 mg/kg/injection, schedule: Q01DX Z (ip), vehicle: saline): 92 % of control

COc1ccc2c(c1OC)C(=O)O[C@@H]2[C@H]1c2c(cc3c(c2OC)OCO3)CCN1C
T/C (dose: 31.3 mg/kg/injection, schedule: Q01DX010 (ip), vehicle: saline): 88 % of control and 90 % of control | T/C [8]: 88 % of control and 95 % of control | T/C [9]: 88 % of control and 90 % of control | T/C [11]: 88 % of control and 90 % of control

Cc1cc(N(CCCl)CCCl)ccc1N=Nc1ccccc1C(=O)O
T/C (dose: 5.0 mg/kg/injection, schedule: Q01DX010 (ip), vehicle: saline): 105 % of control | T/C (dose: 7.5 mg/kg/injection, schedule: Q01DX Z (ip), vehicle: carboxymethylcellulose (CMC)): 101 % of control | T/C [3]: 110 % of control and 95 % of control | T/C (dose: 15.0 mg/kg/injection, schedule: Q01DX Z (ip), vehicle: carboxymethylcellulose (CMC)): 104 % of control | T/C [5]: 110 % of control and 90 % of control | T/C (dose: 30.0 mg/kg/injection, schedule: Q01DX Z (ip), vehicle: carboxymethylcellulose (CMC)): 104 % of control | T/C (dose: 40.0 mg/kg/injection, schedule: Q01DX010 (ip), vehicle: saline): 110 % of control

CN(Cc1cnc2nc(N)nc(N)c2n1)c1ccc(C(=O)N[C@@H](CCC(=O)O)C(=O)O)cc1
T/C (dose: 0.03 mg/kg/injection, schedule: Q01DX Z (ip), vehicle: other): 160 % of control | T/C (dose: 0.06 mg/kg/injection, schedule: Q01DX Z (ip), vehicle: other): 115 % of control | T/C (dose: 0.07 mg/kg/injection, schedule: Q01DX Z (ip), vehicle: other): 113 % of control | T/C (dose: 0.15 mg/kg/injection, schedule: Q01DX Z (ip), vehicle: other): 117 % of control and 122 % of control | T/C (dose: 0.19 mg/kg/injection, schedule: Q01DX010 (ip), vehicle: other): 110 % of control and 120 % of control and 121 % of control | T/C (dose: 0.24 mg/kg/injection, schedule: Q01DX Z (ip), vehicle: other): 189 % of control | T/C (dose: 0.31 mg/kg/injection, schedule: Q01DX Z (ip), vehicle: other): 111 % of control and 117 % of control | T/C (dose: 0.38 mg/kg/injection, schedule: Q01DX010 (ip), vehicle: other): 123 % of control | T/C (dose: 0.47 mg/kg/injection, schedule: Q01DX Z (ip), vehicle: other): 226 % of control | T/C (dose: 0.62 mg/kg/injection, schedule: Q01DX Z (ip), vehicle: other): 110 % of control and 113 % of control | T/C (dose: 0.75 mg/kg/injection, schedule: Q01DX010 (ip), vehicle: other): 150 % of control and 160 % of control and 170 % of control | T/C (dose: 0.94 mg/kg/injection, schedule: Q01DX Z (ip), vehicle: other): 92 % of control | T/C (dose: 1.5 mg/kg/injection, schedule: Q01DX010 (ip), vehicle: other): 187 % of control and 207 % of control and 210 % of control | T/C (dose: 1.88 mg/kg/injection, schedule: Q01DX Z (ip), vehicle: other): 98 % of control | T/C (dose: 3.0 mg/kg/injection, schedule: Q01DX010 (ip), vehicle: other): 106 % of control and 108 % of control and 105 % of control

NC(=O)c1cn(C2OC(CO)C(O)C2O)c2ncnc(N)c12 (centres undefined)
T/C (dose: 0.25 mg/kg/injection, schedule: Q01DX Z (ip), vehicle: carboxymethylcellulose (CMC)): 102 % of control

O=[n+]1c2c(n([O-])c3ccccc31)-c1cccc3cccc-2c13
T/C (dose: 6.25 mg/kg/injection, schedule: Q01DX010 (ip), vehicle: saline): 100 % of control | T/C (dose: 12.5 mg/kg/injection, schedule: Q01DX010 (ip), vehicle: saline): 100 % of control | T/C [15]: 88 % of control and 90 % of control | T/C [16]: 88 % of control and 90 % of control

CO[C@@H]1[C@@H](OC2OC(C)C(OC3CC(C)(O)C(OC(=O)CC(C)C)C(C)O3)C(N(C)C)C2O)[C@@H](CC=O)C[C@@H](C)C(=O)/C=C/C2O[C@H]2C[C@@H](C)OC(=O)C[C@H]1OC(C)=O (some centres undefined)
T/C (dose: 37.5 mg/kg/injection, schedule: Q01DX010 (ip), vehicle: saline): 111 % of control and 120 % of control | T/C (dose: 150.0 mg/kg/injection, schedule: Q01DX010 (ip), vehicle: saline): 111 % of control and 115 % of control | T/C (dose: 300.0 mg/kg/injection, schedule: Q01DX010 (ip), vehicle: saline): 122 % of control

CS(=O)(=O)OCCC(=O)N1CCN(C(=O)CCOS(C)(=O)=O)CC1
T/C [15]: 150 % of control and 285 % of control | T/C [16]: 260 % of control and 277 % of control | T/C [14]: 120 % of control and 205 % of control

O=c1[nH]c(=O)n(C2CC(O)C(CO)O2)cc1Br (centres undefined)
T/C (dose: 16.0 mg/kg/injection, schedule: Q01DX Z (ip), vehicle: carboxymethylcellulose (CMC)): 86 % of control | T/C (dose: 31.0 mg/kg/injection, schedule: Q01DX Z (ip), vehicle: carboxymethylcellulose (CMC)): 107 % of control and 88 % of control | T/C (dose: 62.5 mg/kg/injection, schedule: Q01DX Z (ip), vehicle: carboxymethylcellulose (CMC)): 106 % of control and 99 % of control | T/C [10]: 88 % of control | T/C [12]: 101 % of control
